Experiments:
Assay type in all cases: cell-based, human
[1] = system: MDA MB 231 and SKBr3 breast cancer cells; test: mitochondrially derived superoxide, MitoSOX
Method: (§1) The following parameters were examined: • 1. Induction of the loss of the mitochondrial transmembrane potential (MTP). […] Induction of reactive oxygen species (ROS). Induced fluorescence from the cell permeable indicators of ROS such as dihydroethidium (specific for superoxide) (FIG. 2), CM-H2DCFDA (most types of ROS) (FIG. 1) and MitoSOX (mitochondrially derived superoxide) (FIG. 3) was studied using a fluorescent plate reader and FACS. • 3. Compounds were also tested for the potential cellular sources of ROS induced using either specific indicators for ROS of mitochondrial origin, and/or specific inhibitors of ROS production by known sources such as mitochondria, ubiquinone oxidoreductase NQO (mitochondrial complex I) and NADPH oxidases. • 4. Compounds were tested for induction of DNA damage using test known as comet assay that allows detection of DNA damage in individual cells. (FIG. 4) • 5. The induction of death in cells treated with the compounds was examined using propidium iodide test for cell permeability followed by analysis on FACS. • 6. […] Induced fluorescence from the cell permeable indicators of ROS such as dihydroethidium (specific for superoxide) (FIG. 2), CM-H2DCFDA (most types of ROS) (FIG. 1) and MitoSOX (mitochondrially derived superoxide) (FIG. 3) was studied using a fluorescent plate reader and FACS. • 3. […]

[2] = system: MDA MB 231 and SKBr3 breast cancer cells; test: DNA damage, comet assay
Method: (§2) The following parameters were examined: • 1. Induction of the loss of the mitochondrial transmembrane potential (MTP). […] Induction of reactive oxygen species (ROS). Induced fluorescence from the cell permeable indicators of ROS such as dihydroethidium (specific for superoxide) (FIG. 2), CM-H2DCFDA (most types of ROS) (FIG. 1) and MitoSOX (mitochondrially derived superoxide) (FIG. 3) was studied using a fluorescent plate reader and FACS. • 3. Compounds were also tested for the potential cellular sources of ROS induced using either specific indicators for ROS of mitochondrial origin, and/or specific inhibitors of ROS production by known sources such as mitochondria, ubiquinone oxidoreductase NQO (mitochondrial complex I) and NADPH oxidases. • 4. Compounds were tested for induction of DNA damage using test known as comet assay that allows detection of DNA damage in individual cells. (FIG. 4) • 5. The induction of death in cells treated with the compounds was examined using propidium iodide test for cell permeability followed by analysis on FACS. • 6. The mode of cell death (i.e., apoptosis versus necrosis) was studied using several criteria: conversion of cells to positivity for binding Annexin V; DNA fragmentation (characteristic of apoptotic death) and decrease in cellular ATP levels (commonly observed during necrotic death) (FIG. 5). […]

[3] = system: MDA MB 231 and SKBr3 breast cancer cells; test: cellular ATP content, ATP bioluminescence assay
Method: as §1

[4] = system: MDA MB 231 and SKBr3 breast cancer cells; test: induction of ROS, CM-H2DCFDA fluorescence; details: for induction of cellular ROS: CM-H2DCFDA probe
Method: as §2
DCFDA is nonfluorescent in reduced form and is readily membrane-permeant. Cellular esterases cleave its acetate groups. The thiol-reactive chloromethyl group then binds to cellular thiols, trapping the dye inside the cell, where oxidation converts it to the fluorescent form. CM-H2DCFDA is oxidized by cellular hydrogen peroxide, hydroxyl radicals, and various free radical products lying downstream from hydrogen peroxide. It is relatively insensitive to oxidation by superoxide. However, because hydrogen peroxide is produced by dismutation of superoxide, CM-H2DCFDA serves as an indirect indicator of superoxide production.
FIG. 1. […] The indicated compounds were added to cells at 20 μg/ml growth medium, followed by addition of 10 μM CM-H2 DCFDA. Inhibitor of mitochondrial respiration, NaN3, was added at 10 mM. After 30 minute incubation, cells were washed in PBS and analyzed on FACScan for fluorescence.

[5] = system: MDA MB 231 and SKBr3 breast cancer cells; test: mode of cell death: Annexin V binding, DNA fragmentation
Method: The following parameters were examined: • 1. Induction of the loss of the mitochondrial transmembrane potential (MTP). […] Induction of reactive oxygen species (ROS). Induced fluorescence from the cell permeable indicators of ROS such as dihydroethidium (specific for superoxide) (FIG. 2), CM-H2DCFDA (most types of ROS) (FIG. 1) and MitoSOX (mitochondrially derived superoxide) (FIG. 3) was studied using a fluorescent plate reader and FACS. • 3. Compounds were also tested for the potential cellular sources of ROS induced using either specific indicators for ROS of mitochondrial origin, and/or specific inhibitors of ROS production by known sources such as mitochondria, ubiquinone oxidoreductase NQO (mitochondrial complex I) and NADPH oxidases. • 4. Compounds were tested for induction of DNA damage using test known as comet assay that allows detection of DNA damage in individual cells. (FIG. 4) • 5. The induction of death in cells treated with the compounds was examined using propidium iodide test for cell permeability followed by analysis on FACS. • 6. The mode of cell death (i.e., apoptosis versus necrosis) was studied using several criteria: conversion of cells to positivity for binding Annexin V; DNA fragmentation (characteristic of apoptotic death) and decrease in cellular ATP levels (commonly observed during necrotic death) (FIG. 5). 1. Induction of the loss of the mitochondrial transmembrane potential (MTP). […] Induction of reactive oxygen species (ROS). Induced fluorescence from the cell permeable indicators of ROS such as dihydroethidium (specific for superoxide) (FIG. 2), CM-H2DCFDA (most types of ROS) (FIG. 1) and MitoSOX (mitochondrially derived superoxide) (FIG. 3) was studied using a fluorescent plate reader and FACS. • 3. Compounds were also tested for the potential cellular sources of ROS induced using either specific indicators for ROS of mitochondrial origin, and/or specific inhibitors of ROS production by known sources such as mitochondria, ubiquinone oxidoreductase NQO (mitochondrial complex I) and NADPH oxidases. • 4. […]

[6] = Table 11, confirmed in two breast cancer cell lines

O=c1cc(-c2ccc(O)cc2)oc2cc(O)cc(O)c12 [Apigenin]
conversion of MitoSOX, detector of mitochondrially derived superoxide [1]: converted to its fluorescent form
induction of DNA damage [2]: do not induce DNA damage
change in cellular ATP levels [3]: slight but consistent increase in ATP levels
Induction of ROS (fold) ([4]; Table 11, confirmed in two breast cancer cell lines, listed as cmpd 9): 1.5 fold
Induction of ROS (fold) ([4]; Table 12): 1.5 fold
cell death and its mode [5]: induce significant cell death characterized as apoptotic

O=C1CC(c2ccc(O)cc2)Oc2cc(O)c(O)c(O)c21 (centres unmarked) [Carthamidin]
induction of DNA damage [2]: induce DNA damage
induction of cellular ROS [4]: induce ROS, but of extra-mitochondrial origin

O=C1CC(c2ccc(O)cc2)Oc2c(O)c(O)cc(O)c21 (centres unmarked) [Isocarthamidin]
induction of DNA damage [2]: induce DNA damage
induction of cellular ROS [4]: induce ROS, but of extra-mitochondrial origin

O=c1cc(-c2ccc(O)cc2)oc2c(O)c(O)cc(O)c12 [Isoscutellarein]
induction of DNA damage [2]: induce DNA damage
induction of cellular ROS [4]: induce ROS, but of extra-mitochondrial origin
Induction of ROS (fold) [4, 6]: 1.5 fold
Induction of ROS (fold) ([4]; Table 12): 1.5 fold
cell death and its mode [5]: cell death that has hallmarks of programmed necrosis

O=c1cc(-c2ccc(O)cc2)oc2cc(O)c(O)c(O)c12 [Scutellarein]
induction of DNA damage [2]: induce DNA damage
induction of cellular ROS [4]: induce ROS, but of extra-mitochondrial origin
Induction of ROS (fold) [4, 6]: 2.4 fold
cell death and its mode [5]: cell death that has hallmarks of programmed necrosis

O=c1cc(-c2ccc(O)cc2)oc2cc(O)cc(O)c12 [cmpd 4]
Induction of ROS (fold) [4, 6]: 0.6 fold
